According to patent US5424314A, “20,21-dinoreburnamenines” (Roussel-Uclaf, priority 1990, dated 1995):
Where a name gives a salt, the structure may show the parent alone.

Key:
mouse = assay: Acute toxicity: lethal dose LD0 after oral administration to a mouse; format: in vivo
Protocol: The lethal doses LD0 of the different compounds tested were evaluated after oral administration to a mouse.

[1] = tested on: alpha 2 adrenergic receptors; assay: Affinity for alpha 2 adrenergic receptors (H^3 rauwolscine displacement, cortex homogenate); format: binding, male rate (rat) brain cortices; settings: H^3 rauwolscine 0.15 nM, 45 minutes at 25° C., pH 7.4; concentrations inhibiting 50% of specific fixation compared with phentolamine
Protocol: 2 Affinity for Alpha 2 Adrenergic Receptors
10 cortices removed from the brains of male rate weighing on average 150 g were homogenized in 90 ml of 0.32M sucrose. After centrifuging the homogenized mixture at 1,000 g for 10 minutes at 0° C., the supernatant was centrifuged at 30,000 g for 10 minutes at 0° C.+4° C. The deposit was suspended in 240 ml of 50 mM Tris HCl pH 7.7 buffer and centrifuged at 30,000 g for 15 minutes at 0° C.+4° C. The new deposit was suspended in 480 ml of 50 mM NaKPO4 pH 7.4 buffer. Then 2 ml of suspension were incubated for 45 minutes at 25° C. in the presence of H^3 rauwolscine it a concentration of 0.15 nM:
i) on its own, ii) with increasing concentrations of the product under test or, iii) to determine the non-specific fixation, with non-radioactive phentolamine at a concentration of 10^-5 M.
The incubated suspensions were filtered on Whatman GF/C and the filters were washed three times with 5 ml of NaKPO4 pH 7.4 buffer at 0° C. The radioactivity of the filters was measured by liquid scintillation. The affinity of the product tested for the alpha 2 adrenergic receptors was determined relative to phentolamine as reference product.
CD=concentration of phentolamine inhibiting 50% of the specific fixation of H^3 rauwolscine;
CX=concentration of the product tested inhibiting 50% of the specific fixation of H^3 rauwolscine. […]

[2] = tested on: mice of CD1, Charles River type; assay: Hypobaric anoxia: survival time of mice subjected to a lethal hypoxic atmosphere; format: in vivo; settings: relative to vehicle control animals (70 to 80 seconds); male CD1 mice, depression of 620 mm Hg
Text: The test consisted of measuring the survival time of mice subjected to a lethal hypoxic atmosphere in which male mice of CD1, Charles River type, weighing 20 to 25 grams, were placed individually in a 2 liter enclosure in which a depression of 620 mm Hg was brought about by means of a vacuum pump, according to the following kinetics: […]
______________________________________
The survival time was the time between the start of the depression (T0) and the last respiratory movement; it was on the order of 70 to 80 seconds on the control animals. The results are given as a percentage of the increase in the survival time relative to the control animals who received the vehicle.

Structure (SMILES)	LD0 (maximum dose which did not cause any mortality in 8 days) (mouse)	RBA (relative affinity, relative to phentolamine as reference product) [1]	% increase of survival time [2]
C=Cc1ccc2c3c4n(c2c1)C=CC1CCCN(CC3)C41 (racemic) [Example 1, [16 α(±)]-11-ethenyl-20,21-dinoreburnamenine maleate]	≥ 400	31	–
CC(=O)c1ccc2c3c4n(c2c1)C=CC1CCCN(CC3)C41 (racemic) [Example 4, [16α(±)]-11-acetyl-20,21-dinoreburnamenine acid maleate]	100	–	+22%
CC(O)c1ccc2c3c4n(c2c1)C=CC1CCCN(CC3)C41 (racemic) [Example 5]	100	–	+21%
NC(=O)c1ccc2c3c4n(c2c1)C=CC1CCCN(CC3)C41 (racemic) [Example 10, [16α(±)]-20,21-dinoreburnamenine-11-carboxamide]	–	–	+22%
